Data set [1] addresses T1, Eis_Mtb (Mycobacterium tuberculosis, UniProt P9WFK7). Type of data set: biochemical.
The target of data set [2] is T1, Eis_Mtb. In words: biochemical. Type of data set: biochemical.
The test system of the next data set is Mtb H37Rv. Type of data set: cell-based.
The next data set deals with AAC(6′)-Ie/APH(2″)-Ia (Staphylococcus aureus, UniProt P0A0C1). Nature of the data set: Selectivity: KAN acetylation by AAC(6′)-Ie/APH(2″)-Ia. Type of data set: biochemical.
In another data set the target is AAC(2′)-Ic (Mycobacterium tuberculosis, UniProt P9WQG9). In words: biochemical. Details: species or system Mtb.
Chain of AAC(2′)-Ic (P9WQG9 whole entry): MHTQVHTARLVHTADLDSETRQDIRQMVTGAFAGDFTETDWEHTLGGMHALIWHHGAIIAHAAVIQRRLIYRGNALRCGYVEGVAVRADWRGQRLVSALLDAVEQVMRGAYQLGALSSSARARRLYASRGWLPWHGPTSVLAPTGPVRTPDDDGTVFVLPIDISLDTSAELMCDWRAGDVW
In the next data set the test system is AAC(3)-IV. Nature of the data set: Selectivity: KAN acetylation by AAC(3)-IV. To be noted: for inhibition of KAN acetylation by AAC(3)-IV (in words): concentrations as high as 200 μM. Type of data set: biochemical, E. coli.
The test system of data set [3] is A549, HEK-293, and J774A.1 cells. As to conditions: KAN alone at sub-IC50 concentrations (FIG. 9).
The mark [4] stands for this setting: activity of KAN against Mtb H37Rv with compound at concentration tested (100x IC50 or 100 μM), Example 1, two experiments.
[5] abbreviates: KAN MIC for H37Rv Mtb in the presence of compound at the specified concentration, Example 4.
Setting [6] is: concentrations as high as 200 μM.

From patent US10253035B2 (priority 2016, dated 2019) come the findings set out here.

“Also recorded” adds a separate entry of the source. Where two headings read alike, the source gives them in different places.

T1 sequence (P9WFK7 2-402 limits assumed): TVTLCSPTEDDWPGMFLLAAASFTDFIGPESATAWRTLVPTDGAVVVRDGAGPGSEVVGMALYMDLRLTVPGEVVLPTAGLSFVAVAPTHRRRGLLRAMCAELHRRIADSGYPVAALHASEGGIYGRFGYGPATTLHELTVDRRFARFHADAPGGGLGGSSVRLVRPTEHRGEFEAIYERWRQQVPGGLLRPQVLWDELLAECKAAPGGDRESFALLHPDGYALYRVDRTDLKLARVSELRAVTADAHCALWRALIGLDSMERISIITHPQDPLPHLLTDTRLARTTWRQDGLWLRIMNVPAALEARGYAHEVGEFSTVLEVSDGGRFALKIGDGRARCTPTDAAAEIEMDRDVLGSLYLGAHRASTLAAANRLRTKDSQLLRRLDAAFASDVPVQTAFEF
Chain of AAC(6′)-Ie/APH(2″)-Ia (P0A0C1 whole entry): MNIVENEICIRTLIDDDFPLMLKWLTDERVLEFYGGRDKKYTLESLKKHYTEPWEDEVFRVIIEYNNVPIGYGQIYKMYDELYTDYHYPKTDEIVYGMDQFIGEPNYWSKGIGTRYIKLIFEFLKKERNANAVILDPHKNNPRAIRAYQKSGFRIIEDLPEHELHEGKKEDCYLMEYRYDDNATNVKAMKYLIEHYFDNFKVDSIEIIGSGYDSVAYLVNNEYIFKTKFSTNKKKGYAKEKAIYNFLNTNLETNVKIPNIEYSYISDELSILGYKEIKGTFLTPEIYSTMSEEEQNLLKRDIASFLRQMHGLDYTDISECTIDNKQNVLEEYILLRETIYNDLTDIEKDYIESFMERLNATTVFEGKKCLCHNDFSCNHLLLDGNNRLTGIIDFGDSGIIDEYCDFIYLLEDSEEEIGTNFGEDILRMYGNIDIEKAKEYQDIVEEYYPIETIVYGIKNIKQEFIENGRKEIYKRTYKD

Turning to `Cc1cc(NS(=O)(=O)c2ccc3[nH]c(=O)c(=O)[nH]c3c2)ccc1Br` [Compound 1], the “Eis inhibition in the HTS (in words)” value on Eis_Mtb [1] is recorded as “modest Eis inhibition; also recorded: did not display significant Eis inhibition”. The term IC50 denotes the point on the concentration scale where inhibition reaches its midpoint. As for `CCC(=O)Cn1c(C(=O)OC)cc2occc21` [Compound 1l], the IC50 on Eis_Mtb [2] is > 200000 nM. On to `COC(=O)c1cc2occc2n1CC(=O)C(C)(C)C` [Compound 1m], for which the “H37Rv MICKAN” value in the data set on Mtb H37Rv (setting [4]) was ≤1.25 µg/mL. In addition, on Eis_Mtb [2] (read-out: IC50), the half-maximal inhibitory concentration (IC50) is > 200000 nM.

On to `CCC(=O)CN1C(=O)C2(OCCO2)c2ccccc21` [Compound 2l], for which the “H37Rv MICKAN” value in the data set on Mtb H37Rv (setting [4]) is ≤1.25 µg/mL. Besides, the IC50 on Eis_Mtb [2] (read-out: IC50) is > 200000 nM. Take `O=C(CN1C(=O)C2(OCCO2)c2ccccc21)c1cccc([N+](=O)[O-])c1` [Compound 2n]: the IC50 at Eis_Mtb [2] (read-out: IC50) came to 1200 ± 400 nM. With `O=c1[nH]c2ccc(S(=O)(=O)Nc3ccc(Cl)c(C(F)(F)F)c3)cc2[nH]c1=O` [Compound 3], the “Eis inhibition in the HTS (in words)” value on Eis_Mtb [1] is “modest Eis inhibition”. As for `O=C(C[N+]1=C(c2ccc(F)c(F)c2)c2cccn2CC1)c1cccc(Cl)c1` [Compound 3d], the IC50 at Eis_Mtb [2] (read-out: IC50) stood at 43 ± 6 nM. Same read-out and setting: then `O=C(C[N+]1=C(c2ccc(F)c(F)c2)c2cccn2CC1)c1ccc(F)cc1` [Compound 3h], with 110 ± 30 nM. For `CCN(CC)CCCNC1=NS(=O)(=O)C(c2ccc(C)c(C)c2)=C1C` [Compound 3i], the “H37Rv MICKAN” value in the data set with Mtb H37Rv (setting [5]) is 0.625 µg/mL. On to `Cc1ccc(C(=O)C[N+]2=C(c3ccc(F)c(F)c3)c3cccn3CC2)cc1` [Compound 3k], for which the IC50 at Eis_Mtb [2] (read-out: IC50) was 110 ± 30 nM. For the molecule `CC1=C(c2ccc(F)cc2)S(=O)(=O)N=C1NCCCN1CCCCC1` [Compound 6b], the “H37Rv MICKAN” value in the data set on Mtb H37Rv (setting [5]) came out at 0.625 µg/mL. The same measure, in the same setting: under `CC1=C(c2ccc(F)cc2)S(=O)(=O)N=C1NCCCN1CCCCC1C` (centres unmarked) [Compound 7b] stands 0.625 µg/mL. Consider `CN1C(=O)C2(OCCO2)c2ccccc21` [Compound 8b], for which the “Eis inhibition in the HTS (in words)” value at Eis_Mtb [1] is “no Eis_Mtb inhibitory activity”. For the molecule `CC1=C(c2ccc(Cl)cc2)S(=O)(=O)N=C1NCCCN1CCc2ccccc2C1` [Compound 11c], in the data set with Mtb H37Rv (setting [5]), the “H37Rv MICKAN” value was determined as 0.625 µg/mL. Same read-out and setting: under `CC1=C(c2ccccc2)S(=O)(=O)N=C1NCCCN1CCOCC1` [Compound 13a] stands 0.625 µg/mL.

With `CC1=C(c2ccc(C)cc2)S(=O)(=O)N=C1NCCCN1CCOCC1` [Compound 13e], in the data set with Mtb H37Rv (setting [5]), the “H37Rv MICKAN” value was found to be 0.625 µg/mL. On the same count and under the same terms, then `CC1=C(c2cccc(Cl)c2)S(=O)(=O)N=C1NCCCN1CCOCC1` [Compound 13g], with 0.625 µg/mL; and `CC1=C(c2ccc(C)c(C)c2)S(=O)(=O)N=C1NCCCN1CCOCC1` [Compound 13i], with 0.625 µg/mL.

In the case of `COc1ccc(N(C)S(=O)(=O)c2ccc3[nH]c(=O)c(=O)[nH]c3c2)cc1` [Compound 14], the “Eis inhibition in the HTS (in words)” value at Eis_Mtb [1] was “inactive”. `CC1=C(c2ccc(Cl)cc2)S(=O)(=O)N=C1NCCCN1CCN(C)CC1` [Compound 14c]: the “H37Rv MICKAN” value with Mtb H37Rv (setting [5]) was 0.625 µg/mL.

As for `Cc1ccc(N(C)S(=O)(=O)c2ccc3[nH]c(=O)c(=O)[nH]c3c2)cc1` [Compound 15], the “Eis inhibition in the HTS (in words)” value on Eis_Mtb [1] was “inactive”. Consider `CCN1CCN(CCCNC2=NS(=O)(=O)C(c3ccc(C)cc3)=C2C)CC1` [Compound 15e], for which, in the data set on Mtb H37Rv (setting [5]), the “H37Rv MICKAN” value lay within 0.625 to 1.25 µg/mL. Same read-out and setting: then `CCN1CCN(CCCNC2=NS(=O)(=O)C(c3ccc(C(C)C)cc3)=C2C)CC1` [Compound 15f], with 0.625 to 1.25 µg/mL. On the same count and under the same terms, then `CC1=C(c2ccc(C)c(C)c2)S(=O)(=O)N=C1NCCCN1CCN(C2CCCCC2)CC1` [Compound 17i], with 0.625 to 1.25 µg/mL. As for `CN(c1ccc(Br)cc1)S(=O)(=O)c1ccc2[nH]c(=O)c(=O)[nH]c2c1` [Compound 29], the “Eis inhibition in the HTS (in words)” value on Eis_Mtb [1] (single-point HTS of library compounds) is “potently inhibited Eis activity”. Regarding `CC1=C(c2ccccc2)S(=O)(=O)N=C1NCCN1CCCCC1` [Compound 33a], the “H37Rv MICKAN” value in the data set on Mtb H37Rv (setting [5]) was found to be 0.625 µg/mL. The same measure, in the same setting: then `CC1=C(c2ccc(C)cc2)S(=O)(=O)N=C1NCCN1CCOCC1` [Compound 35e], with 0.625 µg/mL; and `CC1=C(c2cccc(Cl)c2)S(=O)(=O)N=C1NCCN1CCOCC1` [Compound 35g], with 0.625 µg/mL.

Regarding `CC1=C(c2cccc(Br)c2)S(=O)(=O)N=C1NCCN1CCOCC1` [Compound 35h], the “H37Rv MICKAN” value in the data set with Mtb H37Rv (setting [5]) was 0.625 µg/mL.

Regarding `CC1=C(c2ccc(C)c(C)c2)S(=O)(=O)N=C1NCCN1CCOCC1` [Compound 35i], the “H37Rv MICKAN” value with Mtb H37Rv (setting [5]) worked out at 0.625 µg/mL. Still for that read-out and setting: under `COc1ccc(C2=C(C)C(NCCN3CCN(C)CC3)=NS2(=O)=O)cc1` [Compound 36d] stands 0.625 µg/mL. The same measure, in the same setting: under `CCN1CCN(CCNC2=NS(=O)(=O)C(c3ccc(F)cc3)=C2C)CC1` [Compound 37b] stands 0.625 µg/mL.

On to `CCN1CCN(CCNC2=NS(=O)(=O)C(c3ccc(OC)cc3)=C2C)CC1` [Compound 37d], for which the “H37Rv MICKAN” value in the data set with Mtb H37Rv (setting [5]) was 0.625 to 1.25 µg/mL. The inhibition is how much of the control response was suppressed. On to `COc1cccc(N(C)S(=O)(=O)c2ccc3[nH]c(=O)c(=O)[nH]c3c2)c1` [Compound 39], for which the “inhibition of KAN acetylation by AAC(6′)-Ie/APH(2″)-Ia (in words)” value against AAC(6′)-Ie/APH(2″)-Ia is recorded as “did not inhibit KAN acetylation”. The inhibition at 200 µM on AAC(2′)-Ic (read-out: inhibition of the AAC(2′)-Ic activity) stood at 15%. Further, the “inhibition of KAN acetylation by AAC(3)-IV (in words)” value (“inhibition … by AAC(3)-IV (in words)” below) with AAC(3)-IV was “did not inhibit KAN acetylation”. For `CN(c1ccc2ccccc2c1)S(=O)(=O)c1ccc2[nH]c(=O)c(=O)[nH]c2c1` [Compound 46], the “inhibition of KAN acetylation by AAC(6′)-Ie/APH(2″)-Ia (in words)” value on AAC(6′)-Ie/APH(2″)-Ia (setting [6]) is “did not inhibit KAN acetylation”. Also, at AAC(2′)-Ic (setting [6]), the “inhibition of KAN acetylation by AAC(2′)-Ic (in words)” value is “did not inhibit KAN acetylation”. The “inhibition … by AAC(3)-IV (in words)” value in the data set with AAC(3)-IV is listed as “did not inhibit KAN acetylation”. In the case of `CC1=C(c2ccc(F)cc2)S(=O)(=O)N=C1N1CCC(N2CCCCC2)CC1` [Compound 46b], the “% activity” value on AAC(6′)-Ie/APH(2″)-Ia (acetylation activity of AAC(6′)-Ie/APH(2″)-Ia at 200 μM inhibitor relative to that without inhibitor) is 80%; at AAC(2′)-Ic (200 µM) it was 100%; in the data set on AAC(3)-IV (AAC(3)-IV activity at 200 μM inhibitor relative to that without inhibitor) it was 100%. Besides, the “inhibition of KAN acetylation by AAC(6′)-Ie/APH(2″)-Ia (in words)” value at AAC(6′)-Ie/APH(2″)-Ia (setting [6]) is recorded as “no inhibition by either compound was observed”. For the same molecule, on AAC(2′)-Ic, the “inhibition of KAN acetylation by AAC(2′)-Ic (in words)” value is on record as “no inhibition by either compound was observed”. Besides, the “H37Rv MICKAN” value in the data set on Mtb H37Rv (setting [5]) lay in the range of 0.625 to 1.25 µg/mL. At Eis_Mtb [2] (read-out: IC50), the half-inhibitory concentration (IC50) was determined as 92 ± 21 nM. Also, the “inhibition … by AAC(3)-IV (in words)” value in the data set with AAC(3)-IV is reported as “no inhibition by either compound was observed”. For the molecule `COc1cc(N(C)S(=O)(=O)c2ccc3[nH]c(=O)c(=O)[nH]c3c2)cc2ccccc12` [Compound 47], the “inhibition of purified Eis (in words)” value against Eis_Mtb [2] (dose-response assay) is reported as “loss of Eis inhibition”. On to `CCCN1CCN(C2=NS(=O)(=O)C(c3ccc(C)c(C)c3)=C2C)CC1` [Compound 62i], for which the “H37Rv MICKAN” value with Mtb H37Rv (setting [5]) is 0.625 µg/mL. Still for that read-out and setting: then `CC1=C(c2ccc(F)cc2)S(=O)(=O)N=C1NCc1ccccc1` [Compound 89b], with 1.25 µg/mL; and `CC1=C(c2ccc(F)cc2)S(=O)(=O)N=C1NCc1ccccn1` [Compound 112b], with 0.625 µg/mL. The same measure, in the same setting: under `CC1=C(c2ccc(C)c(C)c2)S(=O)(=O)N=C1NCC(=O)NCc1ccc(C)o1` [Compound 116i] stands 1.25 µg/mL. Take `NC[C@H]1O[C@H](O[C@H]2[C@H](O)[C@@H](O[C@H]3O[C@H](CO)[C@@H](O)[C@H](N)[C@H]3O)[C@H](N)C[C@@H]2N)[C@H](O)[C@@H](O)[C@@H]1O` [KAN, kanamycin A]: the “effect on cell growth (in words)” value in data set [3] is given as “promotes cell growth”. Take `COC(=O)c1cc2occc2n1CC(=O)c1cccc(OC)c1` [if]: the IC50 against Eis_Mtb [2] is > 200000 nM.
